# Measurements published in patent US5578570A, “Method of treating septic shock using thymosin β4” (The George Washington University Medical Center, priority 1994, dated 1996).
# Key:
# IL1 α = assay: IL1α levels in a septic shock model in rat; type: in vivo; conditions: rats with septic shock + Tβ4 1 mg/rat × 3
# Description: Using a septic shock model in rats (Sprague-Dawley, male, 200-225 g each), the effect of thymosin β4 alone and together with antibiotics was studied. Peritonitis was induced in rats in the following way. A 1-cm incision was made into the peritoneal which exposed the cecum. A tight ligature was placed around the cecum with 4-0 suture distal to the insertion of the small bowel, forming an area of devitalized tissue while maintaining bowel continuity. A puncture wound was made with 16-gauge needle into the anti-mesenteric surface of the cecum and a small amount of fecal contents was expressed through the wound. The cecum was replaced into the peritoneal cavity, and the anterior peritoneal wall and skin were closed with surgical staples. Each animal was given a bolus of normal saline (15 ml/kg) for hydration and allowed to recover overnight.
# The results presented in Tables XV to XVIII below show effects of Tβ4 respectively on rat cytokine levels, blood malonyldialdehyde levels, glutathione levels and arachidonic acid metabolic levels.
# endotoxic mice = assay: Survival of Swiss Webster mice following lethal endotoxin dose and Tβ4; type: in vivo; conditions: for Number of Mice Alive: Table II, 8 mice at 0 hr.
# Protocol: Swiss-Webster mice 4-6 weeks of age (20-25 g) were housed 6 per cage. The mice were divided into 2 groups: endotoxic mice (endotoxin 60 mg/kg i.p. in acute treatment) and endotoxic mice treated with Tβ4, 5 minutes and 2, 4, 6, 8, 10, 12, 14, 16, 18, 20, 22, 24 hours post administration of the endotoxin. Survival was recorded 2 times a day for 7 days.
# Swiss-Webster mice 4-6 weeks of age (20-25 g) were divided into groups as follows.
# 1. Mice treated with a lethal dose of endotoxin (60 mg/kg).
# 2. […]
# 3. […]
# 4. […]
substance,measurement,setting,value
Thymosin β4 [Tβ4],IL1 α,IL1 α,853 ± 62 pg/mL
same,protective activity on endotoxin lethality (in words),endotoxic mice; 10 μg Tβ4,sometimes shown positive activity
same,Survival (No. mice alive),"endotoxic mice; Table I, endotoxin 60 mg/kg + Tβ4 100 μg 1x, 24 hrs, 7 mice at 0 hrs",4
same,Survival (No. mice alive),"endotoxic mice; Table I, endotoxin 60 mg/kg + Tβ4 100 μg 1x, 48 hrs, 7 mice at 0 hrs",3
same,Survival (No. mice alive),"endotoxic mice; Table I, endotoxin 60 mg/kg + Tβ4 100 μg 1x, 72 hrs, 7 mice at 0 hrs",3
same,Survival (No. mice alive),"endotoxic mice; Table I, endotoxin 60 mg/kg + Tβ4 100 μg 2x, 24 hrs, 7 mice at 0 hrs",4
same,Survival (No. mice alive),"endotoxic mice; Table I, endotoxin 60 mg/kg + Tβ4 100 μg 2x, 48 hrs, 7 mice at 0 hrs",4
same,Survival (No. mice alive),"endotoxic mice; Table I, endotoxin 60 mg/kg + Tβ4 100 μg 2x, 72 hrs, 7 mice at 0 hrs",4
same,Survival (No. mice alive),"endotoxic mice; Table I, endotoxin 60 mg/kg + Tβ4 100 μg 3x, 24 hrs, 7 mice at 0 hrs",7
same,Survival (No. mice alive),"endotoxic mice; Table I, endotoxin 60 mg/kg + Tβ4 100 μg 3x, 48 hrs, 7 mice at 0 hrs",7
same,Survival (No. mice alive),"endotoxic mice; Table I, endotoxin 60 mg/kg + Tβ4 100 μg 3x, 72 hrs, 7 mice at 0 hrs",7
same,Number of Mice Alive,"endotoxic mice; endotoxin 60 mg/kg + Tβ4 100 μg 3x, 24 hr.",8
same,Number of Mice Alive,"endotoxic mice; endotoxin 60 mg/kg + Tβ4 100 μg 3x, 48 hr.",8
same,Number of Mice Alive,"endotoxic mice; endotoxin 60 mg/kg + Tβ4 100 μg 3x, 72 hr.",8
same,Number of Mice Alive,"endotoxic mice; endotoxin 60 mg/kg + Tβ4 100 μg 3x, 7 day",8
same,Number of Mice Alive,"endotoxic mice; endotoxin 60 mg/kg + Tβ4 100 μg 3x, 14 day",8
same,Survival (No. mice alive),"endotoxic mice; Table VI, endotoxin 60 mg/kg + Tβ4 10 μg 3x, immediately following, 2 and 4 hrs after endotoxin, 24 hrs, 8 mice at 0 hrs",8
same,Survival (No. mice alive),"endotoxic mice; Table VI, endotoxin 60 mg/kg + Tβ4 10 μg 3x, immediately following, 2 and 4 hrs after endotoxin, 48 hrs, 8 mice at 0 hrs",6
same,Survival (No. mice alive),"endotoxic mice; Table VI, endotoxin 60 mg/kg + Tβ4 10 μg 3x, immediately following, 2 and 4 hrs after endotoxin, 72 hrs, 8 mice at 0 hrs",6
same,Survival (No. mice alive),"endotoxic mice; Table VI, endotoxin 60 mg/kg + Tβ4 10 μg 3x, immediately following, 2 and 4 hrs after endotoxin, 96 hrs, 8 mice at 0 hrs",6
same,Survival (No. mice alive),"endotoxic mice; Table VI, endotoxin 60 mg/kg + Tβ4 10 μg 3x, immediately following, 2 and 4 hrs after endotoxin, 120 hrs, 8 mice at 0 hrs",6
same,Survival (No. mice alive),"endotoxic mice; Table VI, endotoxin 60 mg/kg + Tβ4 100 μg 3x, 2, 4 and 6 hrs after endotoxin, 24 hrs, 8 mice at 0 hrs",7
same,Survival (No. mice alive),"endotoxic mice; Table VI, endotoxin 60 mg/kg + Tβ4 100 μg 3x, 2, 4 and 6 hrs after endotoxin, 48 hrs, 8 mice at 0 hrs",4
same,Survival (No. mice alive),"endotoxic mice; Table VI, endotoxin 60 mg/kg + Tβ4 100 μg 3x, 2, 4 and 6 hrs after endotoxin, 72 hrs, 8 mice at 0 hrs",4
same,Survival (No. mice alive),"endotoxic mice; Table VI, endotoxin 60 mg/kg + Tβ4 100 μg 3x, 2, 4 and 6 hrs after endotoxin, 96 hrs, 8 mice at 0 hrs",4
same,Survival (No. mice alive),"endotoxic mice; Table VI, endotoxin 60 mg/kg + Tβ4 100 μg 3x, 2, 4 and 6 hrs after endotoxin, 120 hrs, 8 mice at 0 hrs",4
same,Survival (No. mice alive),"endotoxic mice; Table VI, endotoxin 60 mg/kg + Tβ4 100 μg 3x, immediately following, 2 and 4 hrs after endotoxin, 24 hrs, 8 mice at 0 hrs",8
same,Survival (No. mice alive),"endotoxic mice; Table VI, endotoxin 60 mg/kg + Tβ4 100 μg 3x, immediately following, 2 and 4 hrs after endotoxin, 48 hrs, 8 mice at 0 hrs",8
same,Survival (No. mice alive),"endotoxic mice; Table VI, endotoxin 60 mg/kg + Tβ4 100 μg 3x, immediately following, 2 and 4 hrs after endotoxin, 72 hrs, 8 mice at 0 hrs",8
same,Survival (No. mice alive),"endotoxic mice; Table VI, endotoxin 60 mg/kg + Tβ4 100 μg 3x, immediately following, 2 and 4 hrs after endotoxin, 96 hrs, 8 mice at 0 hrs",8
same,Survival (No. mice alive),"endotoxic mice; Table VI, endotoxin 60 mg/kg + Tβ4 100 μg 3x, immediately following, 2 and 4 hrs after endotoxin, 120 hrs, 8 mice at 0 hrs",8
same,Survival (No. mice alive),"endotoxic mice; Table VII, endotoxin 60 mg/kg + Tβ4 10 μg 3x i.p., immediately following, 2 and 4 hrs after endotoxin, 24 hrs, 10 mice at 0 hrs",3
same,Survival (No. mice alive),"endotoxic mice; Table VII, endotoxin 60 mg/kg + Tβ4 10 μg 3x i.p., immediately following, 2 and 4 hrs after endotoxin, 48 hrs, 10 mice at 0 hrs",3
same,Survival (No. mice alive),"endotoxic mice; Table VII, endotoxin 60 mg/kg + Tβ4 10 μg 3x i.p., immediately following, 2 and 4 hrs after endotoxin, 72 hrs, 10 mice at 0 hrs",3
same,Survival (No. mice alive),"endotoxic mice; Table VII, endotoxin 60 mg/kg + Tβ4 10 μg 3x i.p., immediately following, 2 and 4 hrs after endotoxin, 96 hrs, 10 mice at 0 hrs",3
same,Survival (No. mice alive),"endotoxic mice; Table VII, endotoxin 60 mg/kg + Tβ4 10 μg 3x i.p., immediately following, 2 and 4 hrs after endotoxin, 5 days, 10 mice at 0 hrs",3
same,Survival (No. mice alive),"endotoxic mice; Table VII, endotoxin 60 mg/kg + Tβ4 10 μg 3x i.p., immediately following, 2 and 4 hrs after endotoxin, 6 days, 10 mice at 0 hrs",3
same,Survival (No. mice alive),"endotoxic mice; Table VII, endotoxin 60 mg/kg + Tβ4 20 μg 3x i.p., immediately following, 2 and 4 hrs after endotoxin, 24 hrs, 10 mice at 0 hrs",5
same,Survival (No. mice alive),"endotoxic mice; Table VII, endotoxin 60 mg/kg + Tβ4 20 μg 3x i.p., immediately following, 2 and 4 hrs after endotoxin, 48 hrs, 10 mice at 0 hrs",4
same,Survival (No. mice alive),"endotoxic mice; Table VII, endotoxin 60 mg/kg + Tβ4 20 μg 3x i.p., immediately following, 2 and 4 hrs after endotoxin, 72 hrs, 10 mice at 0 hrs",4
same,Survival (No. mice alive),"endotoxic mice; Table VII, endotoxin 60 mg/kg + Tβ4 20 μg 3x i.p., immediately following, 2 and 4 hrs after endotoxin, 96 hrs, 10 mice at 0 hrs",3
same,Survival (No. mice alive),"endotoxic mice; Table VII, endotoxin 60 mg/kg + Tβ4 20 μg 3x i.p., immediately following, 2 and 4 hrs after endotoxin, 5 days, 10 mice at 0 hrs",3
same,Survival (No. mice alive),"endotoxic mice; Table VII, endotoxin 60 mg/kg + Tβ4 20 μg 3x i.p., immediately following, 2 and 4 hrs after endotoxin, 6 days, 10 mice at 0 hrs",3
same,Survival (No. mice alive),"endotoxic mice; Table VII, endotoxin 60 mg/kg + Tβ4 50 μg 3x i.p., immediately following, 2 and 4 hrs after endotoxin, 24 hrs, 10 mice at 0 hrs",9
same,Survival (No. mice alive),"endotoxic mice; Table VII, endotoxin 60 mg/kg + Tβ4 50 μg 3x i.p., immediately following, 2 and 4 hrs after endotoxin, 48 hrs, 10 mice at 0 hrs",7
same,Survival (No. mice alive),"endotoxic mice; Table VII, endotoxin 60 mg/kg + Tβ4 50 μg 3x i.p., immediately following, 2 and 4 hrs after endotoxin, 72 hrs, 10 mice at 0 hrs",7
same,Survival (No. mice alive),"endotoxic mice; Table VII, endotoxin 60 mg/kg + Tβ4 50 μg 3x i.p., immediately following, 2 and 4 hrs after endotoxin, 96 hrs, 10 mice at 0 hrs",7
